pIC50: −log10 of the molar value.
Assays:
[1] = target: Butyrylcholinesterase (Rattus norvegicus, UniProt Q9JKC1)
Description: Inhibitory concentration against rat serum Butyrylcholinesterase

[2] = target: T1, Acetylcholinesterase (Rattus norvegicus, UniProt P37136)
T1 sequence (P37136 whole entry): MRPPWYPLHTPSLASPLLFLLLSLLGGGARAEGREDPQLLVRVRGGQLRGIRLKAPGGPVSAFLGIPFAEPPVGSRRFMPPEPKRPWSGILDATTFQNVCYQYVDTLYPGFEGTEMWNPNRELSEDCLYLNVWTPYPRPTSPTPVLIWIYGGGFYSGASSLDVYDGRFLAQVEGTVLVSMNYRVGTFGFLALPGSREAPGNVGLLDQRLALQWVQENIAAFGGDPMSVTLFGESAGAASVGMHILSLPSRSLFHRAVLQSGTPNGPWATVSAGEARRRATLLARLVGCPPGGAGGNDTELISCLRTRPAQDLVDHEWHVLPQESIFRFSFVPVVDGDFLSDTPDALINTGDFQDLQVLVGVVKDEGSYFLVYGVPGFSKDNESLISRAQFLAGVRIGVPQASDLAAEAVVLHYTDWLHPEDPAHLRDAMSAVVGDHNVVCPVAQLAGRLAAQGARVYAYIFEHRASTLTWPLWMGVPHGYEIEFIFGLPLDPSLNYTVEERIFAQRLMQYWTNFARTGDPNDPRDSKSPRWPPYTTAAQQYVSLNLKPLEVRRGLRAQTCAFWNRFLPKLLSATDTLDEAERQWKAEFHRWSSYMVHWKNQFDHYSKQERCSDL
Description: Inhibitory concentration against rat cortex Acetylcholinesterase

Sequence of Butyrylcholinesterase (Q9JKC1 whole entry): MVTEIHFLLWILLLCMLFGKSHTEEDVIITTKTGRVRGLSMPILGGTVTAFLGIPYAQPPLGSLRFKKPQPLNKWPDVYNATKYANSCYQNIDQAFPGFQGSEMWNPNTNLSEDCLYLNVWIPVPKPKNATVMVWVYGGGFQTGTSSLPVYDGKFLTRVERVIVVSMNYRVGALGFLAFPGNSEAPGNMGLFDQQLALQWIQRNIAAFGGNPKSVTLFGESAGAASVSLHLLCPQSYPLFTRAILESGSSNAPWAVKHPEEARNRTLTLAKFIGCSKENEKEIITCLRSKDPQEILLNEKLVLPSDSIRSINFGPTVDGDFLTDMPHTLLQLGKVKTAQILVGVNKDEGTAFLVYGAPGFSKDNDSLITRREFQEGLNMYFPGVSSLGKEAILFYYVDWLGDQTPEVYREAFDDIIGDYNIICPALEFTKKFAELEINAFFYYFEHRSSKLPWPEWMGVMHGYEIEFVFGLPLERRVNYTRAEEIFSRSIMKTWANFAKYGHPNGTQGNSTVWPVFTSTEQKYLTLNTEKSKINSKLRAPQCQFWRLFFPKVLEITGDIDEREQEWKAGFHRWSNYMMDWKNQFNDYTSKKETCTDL

Compound	pIC50 [1]	pIC50 [2]
COc1ccc(C(=O)NCC(=O)NCCC2CCN(Cc3ccccc3)CC2)cc1OC	4.72	6.18
O=C(CNc1c2c(nc3ccccc13)CCCC2)NCC1CCN(c2ccccc2)CC1	7.91	
O=C(CNC1c2ccccc2-c2[nH]c3ccccc3c21)NCCC1CCN(Cc2ccccc2)CC1 (stereo not drawn)	4.75	
O=C(CNC1CCc2ccccc21)NCCC1CCN(Cc2ccccc2)CC1 (stereo not drawn)	5.16	6.64
O=C(CNc1c2c(nc3ccccc13)CCCC2)NCCC1CCN(c2ccccc2)CC1	7.12	8.22
